By melting point is commonly meant the temperature, or range, at which the solid turns liquid.

Tested on in the first data set: not given
Assay: not given
Conditions: not given
Take `Cc1ccc(O)c(Cn2c(N)nc3ccc(CNc4cccc(OC(F)(F)F)c4)cc32)n1` [Compound 4, 2-{2-Amino-6-[(3-trifluoromethoxyphenylamino)-methyl]-benzoimidazol-1-ylmethyl}-6-methyl-pyridin-3-ol]: the melting point amounted to 156 °C.

The next data set concerns Respiratory Syncytial Virus. As to the kind of experiment: In vitro screening for activity against RSV (tetrazolium-based colorimetric assay, protection against viral cytopathology). Type of data set: cell-based. The note with it: Table 6; numeric activity values, pEC50 (−log of EC50 in molar units). An outline of the steps:
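HeLa cells in Eagle's Basal Medium with 5% FCS and 20 mM Hepes, ~100 TCID50 RSV, five five-fold compound dilutions in triplicate with mock-infected row for cytotoxicity; 7 days at 37 °C, 5% CO2. MTT formazan read at 540 minus 690 nm; EC50 and CC50 from dose-response curves, SI = CC50/EC50.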
`Cc1ccc(O)c(Cn2cnc3cc(NC(=O)c4ccccc4)ccc32)n1` [Compound 266] gave an Activity below 4.0.

The compound `Cc1ccc(O)c(Cn2cnc3cc(NC(=O)C4CCNCC4)ccc32)n1` [Compound 267] displayed an Activity below 4.0.

On to `COCCNCc1ccc2c(c1)ncn2Cc1nc(C)ccc1O` [Compound 269], for which the Activity is reported as below 4.0.

In the case of `Cc1ccc(O)c(Cn2cnc3cc(CNCc4ccncc4)ccc32)n1` [Compound 270], the Activity is listed as below 4.0.

In the case of `Cc1ccc(O)c(Cn2cnc3cc(CNCc4ccco4)ccc32)n1` [Compound 271], the Activity is recorded as below 4.0.

`Cc1ccc(O)c(Cn2cnc3cc(CNCCCc4ccccc4)ccc32)n1` [Compound 272] yielded an Activity below 4.0.

Regarding `Cc1ccc(O)c(Cn2cnc3cc(C(O)c4ccccc4)ccc32)n1.O=C(O)C(=O)O` (centres unmarked) [Compound 274], the Activity is recorded as below 4.0.

With `Cc1ccc(O)c(Cn2cnc3ccc(NC(=O)Cc4ccccn4)cc32)n1` [Compound 276], the Activity is recorded as below 4.0.

In the case of `Cc1ccc(O)c(Cn2cnc3ccc(NC(=O)CCc4ccccc4)cc32)n1` [Compound 277], the Activity was below 4.0.

Regarding `Cc1ccc(O)c(Cn2cnc3ccc(NC(=O)c4cccnc4)cc32)n1` [Compound 278], the Activity is given as below 4.0.

For `Cc1ccc(O)c(Cn2cnc3cc(NC(=O)c4cccnc4)ccc32)n1` [Compound 279], the Activity is below 4.0.

For `Cc1ccc(O)c(Cn2cnc3cc(NC(=O)CCc4ccccc4)ccc32)n1` [Compound 280], the Activity was below 4.0.

The compound `Cc1ccc(O)c(Cn2cnc3cc(NC(=O)Cc4ccccn4)ccc32)n1` [Compound 281] registered an Activity below 4.0.

`CC(=O)c1cccc(NCc2ccc3ncn(Cc4nc(C)ccc4O)c3c2)c1` [Compound 282] showed an Activity below 4.0.

`Cc1ccc(O)c(Cn2cnc3ccc(CNc4cccc(C)c4C)cc32)n1` [Compound 284] returned an Activity below 4.0.

`Cc1ccc(O)c(Cn2cnc3ccc(CNc4ccccc4)cc32)n1` [Compound 285] returned an Activity below 4.0.

On to `CC(=O)c1cccc(NCc2ccc3c(c2)ncn3Cc2nc(C)ccc2O)c1` [Compound 286], for which the Activity is given as below 4.0.

`Cc1ccc(O)c(Cn2cnc3cc(CNc4cccc(Br)c4)ccc32)n1` [Compound 287] yielded an Activity below 4.0.

In turn, `Cc1ccc(O)c(Cn2cnc3cc(CNc4cccc(Cl)c4)ccc32)n1` [Compound 288] displayed an Activity below 4.0.

The compound `Cc1cc(C)cc(NCc2ccc3c(c2)ncn3Cc2nc(C)ccc2O)c1` [Compound 289] displayed an Activity below 4.0.

On to `Cc1ccc(O)c(Cn2cnc3cc(CNc4cc(Cl)cc(Cl)c4)ccc32)n1` [Compound 290], for which the Activity is below 4.0.

Consider `Cc1ccc(O)c(Cn2cnc3cc(CNc4cccc5cccnc45)ccc32)n1` [Compound 291], for which the Activity is recorded as below 4.0.

As to `Cc1ccc(O)c(Cn2cnc3cc(CNc4cccc(C#N)c4)ccc32)n1` [Compound 292], the Activity is reported as below 4.0.

As for `Cc1ccc(O)c(Cn2cnc3cc(CNc4cccc(F)c4)ccc32)n1` [Compound 293], the Activity is below 4.0.

In turn, `CCc1cccc(NCc2ccc3c(c2)ncn3Cc2nc(C)ccc2O)c1` [Compound 294] registered an Activity below 4.0.

`Cc1ccc(O)c(Cn2cnc3cc(CNc4cccc(C)c4C)ccc32)n1` [Compound 295] gave an Activity below 4.0.

For the compound `Cc1ccc(O)c(Cn2cnc3cc(CNc4ccccc4)ccc32)n1` [Compound 296], the Activity is below 4.0.

The data set is the same for the next values; noted with them: human respiratory syncytial virus, 168 h; Table 1; RSV in HeLa cells, MTT, seven days after infection; pEC50 = -log of EC50 in molar units; read-out: Activity (converted).
With `Cc1ccc(O)c(Cn2c(N)nc3ccc(CNc4cccc(OC(F)(F)F)c4)cc32)n1` [Compound 4, 2-{2-Amino-6-[(3-trifluoromethoxyphenylamino)-methyl]-benzoimidazol-1-ylmethyl}-6-methyl-pyridin-3-ol], the EC50 was 2.51 nM.

The values are drawn from patent publication US8044073B2, “Aminobenzimidazoles and benzimidazoles as inhibitors of respiratory syncytial virus replication” (Tibotec Pharmaceuticals, priority 2003, dated 2011).
